Laboratory results published in paper PMC9532951, “Identification and characterization of a novel SNAT2 (SLC38A2) inhibitor reveals synergy with glucose transport inhibition in cancer cells” (Frontiers in Pharmacology, 2022).
Where “and” joins values, the source holds several entries; their conditions need not be identical. Equal entries are not always repeated.

Columns and labels:
SNAT2 [1] = target: T1, SNAT2 (Homo sapiens, UniProt Q96QD8); experiment: FMP assay with betaine in amino acid depleted SKOV3 cells; assay type: cell-based; parameters: SKOV3 cells were pre-incubated in starvation medium for 15 h to induce SNAT2 expression; endogenous in cells; host or cells: SKOV3 ovarian cancer cells, amino acid depleted for 15 h
T1 sequence (Q96QD8 1-506): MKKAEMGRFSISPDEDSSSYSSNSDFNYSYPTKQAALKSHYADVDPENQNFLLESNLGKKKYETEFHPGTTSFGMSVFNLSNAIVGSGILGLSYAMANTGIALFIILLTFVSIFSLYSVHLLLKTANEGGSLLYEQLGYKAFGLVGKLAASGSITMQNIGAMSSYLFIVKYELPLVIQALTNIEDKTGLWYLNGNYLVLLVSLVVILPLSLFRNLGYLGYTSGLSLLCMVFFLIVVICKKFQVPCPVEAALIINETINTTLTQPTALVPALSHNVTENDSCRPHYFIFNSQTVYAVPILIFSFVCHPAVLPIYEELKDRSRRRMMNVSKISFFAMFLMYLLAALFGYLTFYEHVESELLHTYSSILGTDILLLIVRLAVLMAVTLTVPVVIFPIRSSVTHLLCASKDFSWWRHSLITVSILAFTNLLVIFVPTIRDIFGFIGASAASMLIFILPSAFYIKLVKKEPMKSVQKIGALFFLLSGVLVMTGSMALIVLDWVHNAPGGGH
Description: (§1) The FLIPR Membrane Potential Blue Explorer Kit (Molecular Devices) was used to characterise inhibitors and to optimise a high-throughput compound screen. Cells were seeded at approximately 60,000 cells/well on a 96-well plate and allowed to attach and grow overnight in a cell incubator. The next day, the cells were washed once with mHBSS and incubated in a starvation medium (composed of mHBSS with 1% dialysed heat-inactivated FBS, 23 mM NaHCO3, 10 U/ml penicillin and 10 μg/ml streptomycin) for 24 h. Cells were then washed once with mHBSS and incubated with 50 µl of the mHBSS-resuspended FMP assay dye and 50 µl of mHBSS (with or without inhibitors) and incubated at room temperature for 30 min. The plate was then placed in an EnSpire Multimode plate reader (PerkinElmer) and four sequential measurements of fluorescence were recorded as a baseline reference. […] The excitation wavelength was set to 530 nm and the emission was detected at 565 nm. The Δ fluorescent signal reported in the figures was taken 30 s after substrate addition. After the assay was complete, the liquid content of the plate was carefully removed, and the cell monolayer inspected to ensure it remained intact throughout the course of the assay.

HCC1806 wild-type cells = experiment: FMP assay in the absence of amino acid substrate (non-specific effects); assay type: cell-based, human
Description: as §1

SNAT2 [2] = target: T1, SNAT2; experiment: Radiolabelled proline uptake in amino acid depleted SKOV3 cells; assay type: cell-based; parameters: SKOV3 cells pre-incubated in starvation medium for 24 h to induce SNAT2 expression; endogenous in cells; host or cells: SKOV3 ovarian cancer cells, amino acid depleted for 15 or 24 h
Description: Functional characterisation of plasma membrane transporters in human cancer cells was determined at 37°C using an array of radiolabelled amino acid substrates. Modified Hanks HEPES-buffered salts solution (mHBSS; 137 mM NaCl; 5.4 mM KCl; 2.7 mM K2HPO4; 1 mM CaCl2; 0.5 mM MgCl2; 0.44 mM KH2PO4; 0.4 mM MgSO4; 5 mM D-glucose; 5 mM HEPES; pH 7.4) was used to wash and incubate cells where sodium dependent transport was measured, while N-methyl-D-glucamine (NMDG) and potassium salts substituted sodium in NMDG mHBSS to measure sodium independent uptake. For the assay, cells were seeded in 35 mm dishes and, once confluent, were washed thrice with warm mHBSS solution and incubated with mHBSS containing an 100 µM amino acid at a final specific activity of ≥2000 cpm/nmol (U-[^14C]amino acids were from PerkinElmer). After 6 min, cells were washed thrice with ice-cold mHBSS, lysed with 500 µl of 0.1 M HCl, detached with a cell scraper and triturated. A 400 µl aliquot was used for scintillation counting, while the remainder was saved for protein mass quantification by Bradford assay. Transport rates were normalised to the protein content of the culture dish.
IC50 were calculated using equation y=ymax(1−x/x+IC50)

`C[N+](C)(C)CC(=O)O` [Betaine, betaine] was tested, and the Km (SNAT2 [1]; SKOV3, 15 h starvation) was 4.3 ± 0.4 mM, the “FMP fluorescence trace (Figure 4E)” value (SNAT2 [1]; concentration 0.03, time 45) was 36191 and 39302 and 41186 and the “FMP fluorescence trace (Figure 4E)” value (SNAT2 [1]; concentration 0.03, time 60) was 36028 and 39595 and 40874. For the same compound, the “FMP fluorescence trace (Figure 4E)” value (SNAT2 [1]; concentration 0.03, time 75) was 36276 and 39484 and 40680, the “FMP fluorescence trace (Figure 4E)” value (SNAT2 [1]; concentration 0.03, time 90) was 36701 and 39571 and 40731 and the “FMP fluorescence trace (Figure 4E)” value (SNAT2 [1]; concentration 0.03, time 105) was 36288. The “FMP fluorescence trace (Figure 4E)” value (SNAT2 [1]; concentration 0.1, time 45) was 39809 and 43033 and 44738, the “FMP fluorescence trace (Figure 4E)” value (SNAT2 [1]; concentration 0.1, time 60) was 40091 and 43354 and 44846 and the “FMP fluorescence trace (Figure 4E)” value (SNAT2 [1]; concentration 0.1, time 75) was 40044 and 43600 and 44897. The “FMP fluorescence trace (Figure 4E)” value (SNAT2 [1]; concentration 0.1, time 90) was 40287 and 43518 and 45010, the “FMP fluorescence trace (Figure 4E)” value (SNAT2 [1]; concentration 0.3, time 45) was 39193 and 54954 and 48855 and the “FMP fluorescence trace (Figure 4E)” value (SNAT2 [1]; concentration 0.3, time 60) was 39317 and 55361 and 48804. For the same compound, the “FMP fluorescence trace (Figure 4E)” value (SNAT2 [1]; concentration 0.3, time 75) was 39855 and 55442 and 48718, the “FMP fluorescence trace (Figure 4E)” value (SNAT2 [1]; concentration 0.3, time 90) was 39384 and 55296 and 48820 and the “FMP fluorescence trace (Figure 4E)” value (SNAT2 [1]; concentration 0.3, time 105) was 39825 and 55517 and 48933. The “FMP fluorescence trace (Figure 4E)” value (SNAT2 [1]; concentration 1, time 45) was 52793 and 67651 and 60777, the “FMP fluorescence trace (Figure 4E)” value (SNAT2 [1]; concentration 1, time 60) was 53223 and 68372 and 61573 and the “FMP fluorescence trace (Figure 4E)” value (SNAT2 [1]; concentration 1, time 75) was 53467 and 68816 and 61749. For the same compound, the “FMP fluorescence trace (Figure 4E)” value (SNAT2 [1]; concentration 1, time 90) was 53620 and 69372 and 62182, the “FMP fluorescence trace (Figure 4E)” value (SNAT2 [1]; concentration 1, time 105) was 53487 and 69294 and 62105 and the “FMP fluorescence trace (Figure 4E)” value (SNAT2 [1]; concentration 3, time 45) was 69502 and 81716 and 75888. The “FMP fluorescence trace (Figure 4E)” value (SNAT2 [1]; concentration 3, time 60) was 70408 and 83092 and 76997, the “FMP fluorescence trace (Figure 4E)” value (SNAT2 [1]; concentration 3, time 75) was 71034 and 84131 and 77980 and the “FMP fluorescence trace (Figure 4E)” value (SNAT2 [1]; concentration 3, time 90) was 71787 and 84660 and 78697. The “FMP fluorescence trace (Figure 4E)” value (SNAT2 [1]; concentration 3, time 105) was 71870 and 85004 and 78476, the “FMP fluorescence trace (Figure 4E)” value (SNAT2 [1]; concentration 10, time 45) was 84051 and 99553 and 93004 and the “FMP fluorescence trace (Figure 4E)” value (SNAT2 [1]; concentration 10, time 60) was 86308 and 101988 and 95225. The “FMP fluorescence trace (Figure 4E)” value (SNAT2 [1]; concentration 10, time 75) was 87856 and 103721 and 96631, the “FMP fluorescence trace (Figure 4E)” value (SNAT2 [1]; concentration 10, time 90) was 88823 and 104893 and 97518 and the “FMP fluorescence trace (Figure 4E)” value (SNAT2 [1]; concentration 10, time 105) was 89188 and 106421 and 98442. For the same compound, the “FMP fluorescence trace (Figure 4E)” value (SNAT2 [1]; concentration 30, time 45) was 86227 and 101310 and 96479, the “FMP fluorescence trace (Figure 4E)” value (SNAT2 [1]; concentration 30, time 60) was 89361 and 105122 and 98804 and the “FMP fluorescence trace (Figure 4E)” value (SNAT2 [1]; concentration 30, time 75) was 91535 and 107806 and 101327. For the same compound, the “FMP fluorescence trace (Figure 4E)” value (SNAT2 [1]; concentration 30, time 90) was 92748 and 109815 and 102783 and the “FMP fluorescence trace (Figure 4E)” value (SNAT2 [1]; concentration 30, time 105) was 93673 and 111181 and 103799.

`Cc1ccc(S(=O)(=O)N(C)c2ccsc2C(=O)NCc2ccccc2C(F)(F)F)cc1` [Compound 57_E, 3-(N-methyl (4-methylphenyl)sulfonamido)-N-(2-trifluoromethylbenzyl)thiophene-2-carboxamide] was tested, and the “effect on FMP signal without substrate” value (HCC1806 wild-type cells; 30 µM) was “small hyperpolarisation”, the “FMP fluorescence trace (Figure 4C)” value (HCC1806 wild-type cells; time 0) was 66214 and 65985 and 59075 and the “FMP fluorescence trace (Figure 4C)” value (HCC1806 wild-type cells; time 20) was 50115 and 66503 and 60514. The “FMP fluorescence trace (Figure 4C)” value (HCC1806 wild-type cells; time 40) was 49573 and 67066 and 60917, the “FMP fluorescence trace (Figure 4C)” value (HCC1806 wild-type cells; time 60) was 49249 and 67578 and 60989 and the “FMP fluorescence trace (Figure 4C)” value (HCC1806 wild-type cells; time 80) was 48925 and 68056 and 61565. The “FMP fluorescence trace (Figure 4C)” value (HCC1806 wild-type cells; time 100) was 48207 and 68319 and 61663, the “FMP fluorescence trace (Figure 4C)” value (HCC1806 wild-type cells; time 120) was 47392 and 68434 and 62185 and the “FMP fluorescence trace (Figure 4C)” value (HCC1806 wild-type cells; time 140) was 47194 and 68990 and 62194. The “FMP fluorescence trace (Figure 4C)” value (HCC1806 wild-type cells; time 160) was 46255 and 69305 and 62352, the “FMP fluorescence trace (Figure 4C)” value (HCC1806 wild-type cells; time 180) was 45269 and 69919 and 62492 and the “FMP fluorescence trace (Figure 4C)” value (HCC1806 wild-type cells; time 200) was 44480 and 70206 and 63053. For the same compound, the “FMP fluorescence trace (Figure 4C)” value (HCC1806 wild-type cells; time 220) was 43946 and 70155 and 63572, the “FMP fluorescence trace (Figure 4C)” value (HCC1806 wild-type cells; time 240) was 43376 and 70703 and 63707 and the “FMP fluorescence trace (Figure 4C)” value (HCC1806 wild-type cells; time 260) was 42447 and 71161 and 64093. For the same compound, the “FMP fluorescence trace (Figure 4C)” value (HCC1806 wild-type cells; time 280) was 41764 and 71707 and 64350, the “FMP fluorescence trace (Figure 4C)” value (HCC1806 wild-type cells; time -20) was 65818 and 65842 and 59063 and the “FMP fluorescence trace (Figure 4C)” value (HCC1806 wild-type cells; time -40) was 65477 and 66036 and 58494. The “SNAT2 transport rate of proline” value (SNAT2 [2]; Concentration 0.01 uM, betaine resistant transport subtracted) was 5.421 nmol / mg protein x 6 min, the “SNAT2 transport rate of proline” value (SNAT2 [2]; Concentration 0.03 uM) was 5.227 nmol / mg protein x 6 min and the “SNAT2 transport rate of proline” value (SNAT2 [2]; Concentration 0.1 uM) was 4.344 nmol / mg protein x 6 min. For the same compound, the “SNAT2 transport rate of proline” value (SNAT2 [2]; Concentration 0.3 uM) was 3.331 nmol / mg protein x 6 min, the “SNAT2 transport rate of proline” value (SNAT2 [2]; Concentration 1 uM) was 2.267 nmol / mg protein x 6 min and the “SNAT2 transport rate of proline” value (SNAT2 [2]; Concentration 3 uM) was -0.2231 nmol / mg protein x 6 min. The “SNAT2 transport rate of proline” value (SNAT2 [2]; Concentration 10 uM) was -0.6681 nmol / mg protein x 6 min, the IC50 (SNAT2 [2]; betaine-sensitive fraction of proline uptake, SKOV3 AA- (15h)) was 800 ± 400 nM and the IC50 (SNAT2 [2]; in two different assays) was 800 to 3000 nM.
